Here are results for 25 compounds from US20060276464A1, “Diarylsulfone sulfonamides and use thereof” (Wyeth, priority 2005, published 2006).

For orientation: IC50 means the concentration needed to halve the response being measured. Higher therefore signals weaker potency in that assay. One may read the EC50 as the midpoint of the concentration-response curve.

Experiment [1] deals with T1, SFRP-1 (Homo sapiens, UniProt Q8N474).
T1 sequence (Q8N474 32-314): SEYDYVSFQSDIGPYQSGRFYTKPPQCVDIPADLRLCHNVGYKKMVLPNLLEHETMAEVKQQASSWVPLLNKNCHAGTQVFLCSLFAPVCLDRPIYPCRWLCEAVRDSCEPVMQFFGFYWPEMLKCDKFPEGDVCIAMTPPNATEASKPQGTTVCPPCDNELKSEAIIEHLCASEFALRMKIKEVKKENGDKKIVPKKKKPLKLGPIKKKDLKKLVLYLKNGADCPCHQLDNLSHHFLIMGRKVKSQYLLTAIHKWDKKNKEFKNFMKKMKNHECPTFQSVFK
Kind of experiment: Fluorescence polarization binding assay (competitive displacement of a probe compound from SFRP-1).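 Also: test compound competes with a fluorescent probe held by SFRP-1, seen as a drop in probe anisotropy after incubation in darkness, with anisotropy as function of rising compound dose.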 The settings on record: fluorescence anisotropy, 45 nM SFRP-1, 20 nM probe. On the technique in general: Polarisation of emitted light reports the rotation of a fluorescent probe.

The target of experiment [2] is T1, SFRP-1. Kind of experiment: Cell-based assay for in vitro measurement of SFRP-1/SARP2 antagonist activity (U2OS cells co-transfected with 16x TCF-tk-Luciferase reporter, Wnt and hSFRP-1).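 As to all read-outs here: U2OS cells co-transfected with a TCF-tk luciferase reporter, a Wnt vector, hSFRP-1 or empty vector and CMV-βgal, luciferase luminescence read in cell lysates alongside βgal activity.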 The settings on record: for fold induction at 10 µM: U2OS, read-out: Fold Induction with SFRP-1, U2OS cells, single dose 10 μM, luciferase reporter, fold induction over SFRP-1 control.

For the compound `CC(C)c1ccc(S(=O)(=O)c2ccccc2)cc1S(=O)(=O)NC1CCN(C(=O)OC(C)(C)C)CC1` [Example 912, tert-butyl 4-({[2-isopropyl-5-(phenylsulfonyl)phenyl]sulfonyl}amino)piperidine-1-carboxylate], on SFRP-1 [1], the IC50 is 2100 nM. On SFRP-1 [2], the EC50 came to 1010 nM and the fold induction at 10 µM amounted to 2.4.

As to `O=S(=O)(NCCC1CCCN1)c1cc(S(=O)(=O)c2ccccc2)ccc1C(F)(F)F` (centres unmarked) [Example 913, 5-(phenylsulfonyl)-N-(2-pyrrolidin-2-ylethyl)-2-(trifluoromethyl)benzenesulfonamide], the IC50 at SFRP-1 [1] turned out to be 3000 nM. For the same compound, on SFRP-1 [2], a half-maximal effect (EC50) was put at 7010 nM and the fold induction at 10 µM turned out to be 3.1.

`O=S(=O)(NC1CCN(S(=O)(=O)c2ccc(O)cc2)CC1)c1cc(S(=O)(=O)c2ccccc2)ccc1C(F)(F)F` [Example 914, N-{1-[(4-hydroxyphenyl)sulfonyl]piperidin-4-yl}-5-(phenylsulfonyl)-2-(trifluoromethyl)benzenesulfonamide] had a half-maximal inhibitory concentration (IC50) on SFRP-1 [1] of 80 nM. Also, at SFRP-1 [2], the concentration giving a half-maximal response (EC50) stood at 541 nM and the fold induction at 10 µM was 4.5.

In the case of `O=C(O)CN1CCCC1CCNS(=O)(=O)c1cc(S(=O)(=O)c2ccccc2)ccc1C(F)(F)F` (centres unmarked) [Example 918, {2-[2-({[5-(phenylsulfonyl)-2-(trifluoromethyl)phenyl]sulfonyl}amino)ethyl]pyrrolidin-1-yl}acetic acid], at SFRP-1 [1], the IC50 came out at 4000 nM. At SFRP-1 [2], the response was half-maximal at 2980 nM (EC50) and the fold induction at 10 µM was determined as 1.6.

At SFRP-1 [1], `O=C(O)CCC(=O)N1CCCC1CCNS(=O)(=O)c1cc(S(=O)(=O)c2ccccc2)ccc1C(F)(F)F` (centres unmarked) [Example 919, 4-oxo-4-{2-[2-({[5-(phenylsulfonyl)-2-(trifluoromethyl)phenyl]sulfonyl}amino)ethyl]pyrrolidin-1-yl}butanoic acid] had an IC50 of 1400 nM. Further, on SFRP-1 [2], a half-maximal response (EC50) required 5260 nM and the fold induction at 10 µM was 1.6.

`O=C(O)c1cccc(S(=O)(=O)N2CCCC2CCNS(=O)(=O)c2cc(S(=O)(=O)c3ccccc3)ccc2C(F)(F)F)c1` (centres unmarked) [Example 920, 3-({2-[2-({[5-(phenylsulfonyl)-2-(trifluoromethyl)phenyl]sulfonyl}amino)ethyl]pyrrolidin-1-yl)sulfonyl)benzoic acid] registered an IC50 on SFRP-1 [1] of 280 nM. Besides, on SFRP-1 [2], the EC50 was 1810 nM and the fold induction at 10 µM was 2.2.

For `CCc1ccc(S(=O)(=O)c2ccccc2)cc1S(=O)(=O)NC1CCNCC1` [Example 921, 2-ethyl-5-(phenylsulfonyl)-N-piperidin-4-ylbenzenesulfonamide], the IC50 at SFRP-1 [1] was found to be 4000 nM. Besides, at SFRP-1 [2], the EC50 worked out at 2360 nM and the fold induction at 10 µM is 2.5.

Compound `Cc1cc(C)c(S(=O)(=O)c2ccccc2)cc1S(=O)(=O)NC1CCNCC1` [Example 923, 2,4-dimethyl-5-(phenylsulfonyl)-N-piperidin-4-ylbenzenesulfonamide] returned an IC50 on SFRP-1 [1] of 10000 nM. Further, on SFRP-1 [2], a half-maximal response (EC50) required 1870 nM and the fold induction at 10 µM came out at 2.4.

Consider `CC(C)c1ccc(S(=O)(=O)c2ccccc2)cc1S(=O)(=O)NC1CCNCC1` [Example 924, 2-isopropyl-5-(phenylsulfonyl)-N-piperidin-4-ylbenzenesulfonamide], for which the IC50 at SFRP-1 [1] was found to be 1800 nM. Besides, on SFRP-1 [2], a half-maximal effect (EC50) was put at 1920 nM and the fold induction at 10 µM is 2.5.

On SFRP-1 [1], `CCCc1ccc(S(=O)(=O)c2ccccc2)cc1S(=O)(=O)NC1CCNCC1` [Example 925, 5-(phenylsulfonyl)-N-piperidin-4-yl-2-propylbenzenesulfonamide] returned an IC50 of 8000 nM. For the same compound, at SFRP-1 [2], the response was half-maximal at 2150 nM (EC50) and the fold induction at 10 µM stood at 3.

With `CN(CCNS(=O)(=O)c1cc(S(=O)(=O)c2ccccc2)ccc1C(F)(F)F)C(=O)N[C@H]1CCN(C(=O)OC(C)(C)C)C1` [Example 926, tert-butyl (3S)-3-[({methyl[2-({[5-(phenylsulfonyl)-2-(trifluoromethyl)phenyl]sulfonyl}amino)ethyl]amino}carbonyl)amino]pyrrolidine-1-carboxylate], the 50% inhibitory concentration (IC50) at SFRP-1 [1] worked out at 500 nM. Besides, at SFRP-1 [2], the EC50 turned out to be 1360 nM and the fold induction at 10 µM was found to be 3.6.

Turning to `CN(CCCNS(=O)(=O)c1cc(S(=O)(=O)c2ccccc2)ccc1C(F)(F)F)C(=O)OC(C)(C)C` [Example 927, tert-butyl methyl[3-({[5-(phenylsulfonyl)-2-(trifluoromethyl)phenyl]sulfonyl}amino)propyl]carbamate], the IC50 on SFRP-1 [1] is 2400 nM. For the same compound, at SFRP-1 [2], the midpoint of the response, the EC50, lay at 4510 nM and the fold induction at 10 µM turned out to be 2.1.

`Nc1ccc(CCNS(=O)(=O)c2cc(S(=O)(=O)c3ccccc3)ccc2C(F)(F)F)cc1` [Example 928, N-[2-(4-aminophenyl)ethyl]-5-(phenylsulfonyl)-2-(trifluoromethyl)benzenesulfonamide] had an IC50 at SFRP-1 [1] of 180 nM. Moreover, at SFRP-1 [2], a half-maximal response (EC50) required 380 nM and the fold induction at 10 µM is 3.9.

Consider `CNCCCNS(=O)(=O)c1cc(S(=O)(=O)c2ccccc2)ccc1C(F)(F)F` [Example 929, N-[3-(methylamino)propyl]-5-(phenylsulfonyl)-2-(trifluoromethyl)benzenesulfonamide], for which the IC50 at SFRP-1 [1] came to 4000 nM. At SFRP-1 [2], the EC50 came out at 3320 nM and the fold induction at 10 µM was 2.9.

On SFRP-1 [1], `CC(C)(C)OC(=O)N1CCC(CCNS(=O)(=O)c2cc(S(=O)(=O)c3ccccc3)ccc2C(F)(F)F)CC1` [Example 931, tert-butyl 4-[2-({[5-(phenylsulfonyl)-2-(trifluoromethyl)phenyl]sulfonyl}amino)ethyl]piperidine-1-carboxylate] registered an IC50 of 4000 nM. At SFRP-1 [2], the 50% effective concentration (EC50) is 1300 nM and the fold induction at 10 µM worked out at 2.9.

The compound `COC(=O)C1CCCC(NS(=O)(=O)c2cc(S(=O)(=O)c3ccccc3)ccc2C(C)C)C1` (centres unmarked) [Example 932, methyl 3-({[2-isopropyl-5-(phenylsulfonyl)phenyl]sulfonyl}amino)cyclohexanecarboxylate] returned an IC50 on SFRP-1 [1] of 3000 nM. On SFRP-1 [2], a half-maximal response (EC50) required 1860 nM and the fold induction at 10 µM is 2.8.

For the compound `COC(=O)C1CCC(NS(=O)(=O)c2cc(S(=O)(=O)c3ccccc3)ccc2C(C)C)CC1` (centres unmarked) [Example 933, methyl 4-({[2-isopropyl-5-(phenylsulfonyl)phenyl]sulfonyl}amino)cyclohexanecarboxylate], on SFRP-1 [1], the IC50 was found to be 6000 nM. In addition, at SFRP-1 [2], the response was half-maximal at 1740 nM (EC50) and the fold induction at 10 µM turned out to be 2.5.

On SFRP-1 [1], `COC(=O)[C@H]1CC[C@H](CNS(=O)(=O)c2cc(S(=O)(=O)c3ccccc3)ccc2C(C)C)CC1` [Example 934, methyl trans-4-[({[2-isopropyl-5-(phenylsulfonyl)phenyl]sulfonyl}amino)methyl]cyclohexanecarboxylate] yielded an IC50 of 2800 nM. Moreover, at SFRP-1 [2], the concentration for a half-maximal effect (EC50) was 2730 nM and the fold induction at 10 µM was determined as 2.3.

Consider `CC(C)c1ccc(S(=O)(=O)c2ccccc2)cc1S(=O)(=O)NC1CC(C)(C)NC(C)(C)C1` [Example 935, 2-isopropyl-5-(phenylsulfonyl)-N-(2,2,6,6-tetramethylpiperidin-4-yl)benzenesulfonamide], for which the IC50 at SFRP-1 [1] was 7000 nM. Besides, at SFRP-1 [2], the 50% effective concentration (EC50) is 2530 nM and the fold induction at 10 µM stood at 2.5.

Take `CC(C)c1ccc(S(=O)(=O)c2ccccc2)cc1S(=O)(=O)NCc1ccncc1` [Example 936, 2-isopropyl-5-(phenylsulfonyl)-N-(pyridin-4-ylmethyl)benzenesulfonamide]: the IC50 on SFRP-1 [1] stood at 3000 nM. For the same compound, on SFRP-1 [2], the response was half-maximal at 1820 nM (EC50) and the fold induction at 10 µM worked out at 2.7.

The compound `CN(CCNS(=O)(=O)c1cc(S(=O)(=O)c2ccccc2)ccc1C(F)(F)F)C(=O)N[C@H]1CCNC1` [Example 937, N-[2-(methyl{[(3S)-pyrrolidin-3-ylamino]carbonyl}amino)ethyl]-5-(phenylsulfonyl)-2-(trifluoromethyl)benzenesulfonamide] gave an IC50 at SFRP-1 [1] of 1700 nM. On SFRP-1 [2], a half-maximal effect (EC50) was put at 2300 nM and the fold induction at 10 µM worked out at 2.8.

As to `COC(=O)c1cccc(S(=O)(=O)N2CCC(NS(=O)(=O)c3cc(S(=O)(=O)c4ccccc4)ccc3C(F)(F)F)CC2)c1` [Example 938, methyl 3-{[4-({[5-(phenylsulfonyl)-2-(trifluoromethyl)phenyl]sulfonyl}amino)piperidin-1-yl]sulfonyl}benzoate], the IC50 at SFRP-1 [1] was 900 nM. At SFRP-1 [2], it took 850 nM to reach a half-maximal effect (EC50) and the fold induction at 10 µM is 4.4.

On to `COc1ccc(CCNS(=O)(=O)c2cc(S(=O)(=O)c3ccccc3)ccc2C(F)(F)F)cc1` [Example 939, N-[2-(4-methoxyphenyl)ethyl]-5-(phenylsulfonyl)-2-(trifluoromethyl)benzenesulfonamide], for which the IC50 on SFRP-1 [1] was found to be 700 nM. Further, on SFRP-1 [2], the fold induction at 10 µM is 2.2.

On to `O=S(=O)(NCCC1CCNCC1)c1cc(S(=O)(=O)c2ccccc2)ccc1C(F)(F)F` [Example 940, 5-(phenylsulfonyl)-N-(2-piperidin-4-ylethyl)-2-(trifluoromethyl)benzenesulfonamide], for which the IC50 on SFRP-1 [1] stood at 1100 nM. Further, at SFRP-1 [2], a half-maximal response (EC50) required 2280 nM and the fold induction at 10 µM amounted to 4.1.

In turn, `O=C(O)CN1CCC(CNS(=O)(=O)c2cc(S(=O)(=O)c3ccccc3)ccc2C(F)(F)F)CC1` [Example 941, {4-[({[5-(phenylsulfonyl)-2-(trifluoromethyl)phenyl]sulfonyl}amino)methyl]piperidin-1-yl}acetic acid] showed an IC50 on SFRP-1 [1] of 700 nM. Further, at SFRP-1 [2], the EC50 turned out to be 1340 nM and the fold induction at 10 µM amounted to 3.2.
